Data taken from patent US10765672B2, “Pharmaceutical formulations of a HIF hydroxylase inhibitor” (FibroGen, Inc., priority 2013, dated 2020).

Experiment: Solid state sunlight exposure of Compound A powder, reverse phase HPLC
Type: physicochemical
Details: for purity value as measured by reverse phase HPLC: Compound A dry powder
Protocol: Approximately 500 mg of Compound A dry powder was placed in a 1-gallon polyethylene bag and exposed to sunlight for two months consecutively during daylight hours. The powder was in a very thin layer and the bag was shaken often to ensure that all the powder and not just the top layer was exposed to sunlight. A control sample of Compound A powder was stored in an amber vial in the dark for the same amount of time for comparison purposes. […] The light-exposed sample and the control sample were analyzed by HPLC to evaluate differences in their composition. The HPLC method used a reverse phase Zorbax Eclipse XDB-C8, 3.5 μm, 4.6×150 mm column. The mobile phase was comprised of water and acetonitrile mixtures acidified with trifluoroacetic acid. Gradient elution with increasing acetonitrile provided chromatograms of the control sample of Compound A (FIG. 1, before light exposure) and the light-exposed sample of Compound A (FIG. 1, after light exposure) with UV detection at 230 nm.
After exposure to sunlight, a new peak appeared in the chromatogram evidencing a new molecule.

SMILES: Cc1nc(C(=O)NCC(=O)O)c(O)c2ccc(Oc3ccccc3)cc12 [Compound A, [(4-hydroxy-1-methyl-7-phenoxy-isoquinoline-3-carbonyl)-amino]-acetic acid]
- purity value as measured by reverse phase HPLC (after exposure to sunlight for two months): 98.4%
- purity value as measured by reverse phase HPLC (before exposure to sunlight): 99.1%
- visual inspection (colour) (control sample stored in amber vial in the dark, two months): yellow
- visual inspection (colour) (light-exposed sample, two months sunlight): off-white
